Measurements reported in ChEMBL document CHEMBL1201862, “PubChem BioAssay data set” (2004).
Active and inactive are the calls of the source.

Legend:
[1] = target: Sphingosine 1-phosphate receptor 1 (Homo sapiens, UniProt P21453); assay: Fluorescence-based counterscreen assay for S1P4 agonists: Cell-based dose response high throughput screening assay to identify agonists of the Sphingosine 1-Phosphate Receptor 1 (S1P1). [Related pubchem assays (depositor defined):AID1509, AID1523, AID1801, AID463107, AID463118, AID463119, AID463122, AID463123, AID463129, AID463225, AID504400, AID504460]; assay type: functional
Sphingosine 1-phosphate receptor 1, sequence (P21453 whole entry): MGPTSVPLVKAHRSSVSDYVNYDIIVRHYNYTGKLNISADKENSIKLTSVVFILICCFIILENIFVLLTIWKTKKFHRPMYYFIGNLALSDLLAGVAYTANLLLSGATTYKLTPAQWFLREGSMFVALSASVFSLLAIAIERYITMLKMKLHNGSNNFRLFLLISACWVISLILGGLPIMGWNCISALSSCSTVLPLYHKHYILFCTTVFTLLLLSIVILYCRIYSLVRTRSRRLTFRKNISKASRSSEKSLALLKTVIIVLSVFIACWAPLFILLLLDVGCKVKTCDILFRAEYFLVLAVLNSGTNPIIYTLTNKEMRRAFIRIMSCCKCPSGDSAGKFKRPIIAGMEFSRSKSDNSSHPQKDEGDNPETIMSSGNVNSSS

[2] = target: T1, Sphingosine 1-phosphate receptor 4 (Homo sapiens, UniProt O95977); assay: Fluorescence dose response cell-based high throughput screening assay for agonists of the Sphingosine 1-Phosphate Receptor 4 (S1P4). [Related pubchem assays: 1509 (Primary screen.), 1523 (Confirmation screen in triplicates.)]; assay type: functional
T1 sequence (O95977 whole entry): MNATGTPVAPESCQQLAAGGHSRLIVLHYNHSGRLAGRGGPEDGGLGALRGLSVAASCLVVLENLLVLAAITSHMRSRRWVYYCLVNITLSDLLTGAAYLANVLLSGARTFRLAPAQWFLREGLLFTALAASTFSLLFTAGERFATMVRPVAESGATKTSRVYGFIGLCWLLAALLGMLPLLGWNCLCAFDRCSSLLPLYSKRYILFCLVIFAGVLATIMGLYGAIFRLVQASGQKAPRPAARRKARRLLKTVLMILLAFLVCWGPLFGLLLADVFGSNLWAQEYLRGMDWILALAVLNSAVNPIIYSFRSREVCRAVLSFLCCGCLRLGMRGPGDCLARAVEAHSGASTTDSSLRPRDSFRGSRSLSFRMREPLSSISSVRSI

CAAX prenyl protease 2 = target: T2, CAAX prenyl protease 2 (Saccharomyces cerevisiae S288c, UniProt Q03530); assay type: biochemical
T2 sequence (Q03530 whole entry): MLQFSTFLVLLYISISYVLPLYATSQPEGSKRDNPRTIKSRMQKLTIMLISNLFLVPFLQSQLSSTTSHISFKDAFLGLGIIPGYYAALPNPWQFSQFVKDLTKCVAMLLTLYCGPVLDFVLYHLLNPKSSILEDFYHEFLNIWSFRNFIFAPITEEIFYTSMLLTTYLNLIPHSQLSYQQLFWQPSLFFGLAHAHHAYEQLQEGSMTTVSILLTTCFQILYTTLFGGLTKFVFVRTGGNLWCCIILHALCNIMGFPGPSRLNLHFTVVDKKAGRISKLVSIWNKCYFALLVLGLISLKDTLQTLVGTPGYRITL

[3] = mammalian cell cytotoxicity, dose response, cytotoxicity control, plate reader, cherry-pick samples (AID 504397); assay type: functional, cell-based
[4] = target: T3, Tyrosine-protein phosphatase non-receptor type 7 (Homo sapiens, UniProt P35236); assay: HePTP (PTPN7) phosphatase inhibitor potency, SAR follow-up, biochemical, set 2 (AID 449736); assay type: functional
T3 sequence (P35236 whole entry): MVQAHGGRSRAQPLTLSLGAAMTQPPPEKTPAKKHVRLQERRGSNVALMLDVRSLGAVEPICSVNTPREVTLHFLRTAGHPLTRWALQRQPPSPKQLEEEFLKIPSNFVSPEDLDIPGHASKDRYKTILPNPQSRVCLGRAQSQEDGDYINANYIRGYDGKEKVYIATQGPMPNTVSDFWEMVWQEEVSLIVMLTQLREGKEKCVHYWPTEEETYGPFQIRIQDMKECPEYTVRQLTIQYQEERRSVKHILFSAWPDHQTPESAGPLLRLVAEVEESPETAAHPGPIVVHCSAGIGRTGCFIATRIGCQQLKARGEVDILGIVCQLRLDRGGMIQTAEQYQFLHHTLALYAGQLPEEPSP

[5] = target: Voltage-dependent T-type calcium channel subunit alpha-1H (Homo sapiens, UniProt O95180); assay: Cav3.2 T-type channel inhibitors, synthesized analogs, SAR follow-up, cell-based, synthetic library set 2, HEK293 HH8, Fluo-4 (AID 493023); assay type: functional
Voltage-dependent T-type calcium channel subunit alpha-1H, sequence (O95180 whole entry): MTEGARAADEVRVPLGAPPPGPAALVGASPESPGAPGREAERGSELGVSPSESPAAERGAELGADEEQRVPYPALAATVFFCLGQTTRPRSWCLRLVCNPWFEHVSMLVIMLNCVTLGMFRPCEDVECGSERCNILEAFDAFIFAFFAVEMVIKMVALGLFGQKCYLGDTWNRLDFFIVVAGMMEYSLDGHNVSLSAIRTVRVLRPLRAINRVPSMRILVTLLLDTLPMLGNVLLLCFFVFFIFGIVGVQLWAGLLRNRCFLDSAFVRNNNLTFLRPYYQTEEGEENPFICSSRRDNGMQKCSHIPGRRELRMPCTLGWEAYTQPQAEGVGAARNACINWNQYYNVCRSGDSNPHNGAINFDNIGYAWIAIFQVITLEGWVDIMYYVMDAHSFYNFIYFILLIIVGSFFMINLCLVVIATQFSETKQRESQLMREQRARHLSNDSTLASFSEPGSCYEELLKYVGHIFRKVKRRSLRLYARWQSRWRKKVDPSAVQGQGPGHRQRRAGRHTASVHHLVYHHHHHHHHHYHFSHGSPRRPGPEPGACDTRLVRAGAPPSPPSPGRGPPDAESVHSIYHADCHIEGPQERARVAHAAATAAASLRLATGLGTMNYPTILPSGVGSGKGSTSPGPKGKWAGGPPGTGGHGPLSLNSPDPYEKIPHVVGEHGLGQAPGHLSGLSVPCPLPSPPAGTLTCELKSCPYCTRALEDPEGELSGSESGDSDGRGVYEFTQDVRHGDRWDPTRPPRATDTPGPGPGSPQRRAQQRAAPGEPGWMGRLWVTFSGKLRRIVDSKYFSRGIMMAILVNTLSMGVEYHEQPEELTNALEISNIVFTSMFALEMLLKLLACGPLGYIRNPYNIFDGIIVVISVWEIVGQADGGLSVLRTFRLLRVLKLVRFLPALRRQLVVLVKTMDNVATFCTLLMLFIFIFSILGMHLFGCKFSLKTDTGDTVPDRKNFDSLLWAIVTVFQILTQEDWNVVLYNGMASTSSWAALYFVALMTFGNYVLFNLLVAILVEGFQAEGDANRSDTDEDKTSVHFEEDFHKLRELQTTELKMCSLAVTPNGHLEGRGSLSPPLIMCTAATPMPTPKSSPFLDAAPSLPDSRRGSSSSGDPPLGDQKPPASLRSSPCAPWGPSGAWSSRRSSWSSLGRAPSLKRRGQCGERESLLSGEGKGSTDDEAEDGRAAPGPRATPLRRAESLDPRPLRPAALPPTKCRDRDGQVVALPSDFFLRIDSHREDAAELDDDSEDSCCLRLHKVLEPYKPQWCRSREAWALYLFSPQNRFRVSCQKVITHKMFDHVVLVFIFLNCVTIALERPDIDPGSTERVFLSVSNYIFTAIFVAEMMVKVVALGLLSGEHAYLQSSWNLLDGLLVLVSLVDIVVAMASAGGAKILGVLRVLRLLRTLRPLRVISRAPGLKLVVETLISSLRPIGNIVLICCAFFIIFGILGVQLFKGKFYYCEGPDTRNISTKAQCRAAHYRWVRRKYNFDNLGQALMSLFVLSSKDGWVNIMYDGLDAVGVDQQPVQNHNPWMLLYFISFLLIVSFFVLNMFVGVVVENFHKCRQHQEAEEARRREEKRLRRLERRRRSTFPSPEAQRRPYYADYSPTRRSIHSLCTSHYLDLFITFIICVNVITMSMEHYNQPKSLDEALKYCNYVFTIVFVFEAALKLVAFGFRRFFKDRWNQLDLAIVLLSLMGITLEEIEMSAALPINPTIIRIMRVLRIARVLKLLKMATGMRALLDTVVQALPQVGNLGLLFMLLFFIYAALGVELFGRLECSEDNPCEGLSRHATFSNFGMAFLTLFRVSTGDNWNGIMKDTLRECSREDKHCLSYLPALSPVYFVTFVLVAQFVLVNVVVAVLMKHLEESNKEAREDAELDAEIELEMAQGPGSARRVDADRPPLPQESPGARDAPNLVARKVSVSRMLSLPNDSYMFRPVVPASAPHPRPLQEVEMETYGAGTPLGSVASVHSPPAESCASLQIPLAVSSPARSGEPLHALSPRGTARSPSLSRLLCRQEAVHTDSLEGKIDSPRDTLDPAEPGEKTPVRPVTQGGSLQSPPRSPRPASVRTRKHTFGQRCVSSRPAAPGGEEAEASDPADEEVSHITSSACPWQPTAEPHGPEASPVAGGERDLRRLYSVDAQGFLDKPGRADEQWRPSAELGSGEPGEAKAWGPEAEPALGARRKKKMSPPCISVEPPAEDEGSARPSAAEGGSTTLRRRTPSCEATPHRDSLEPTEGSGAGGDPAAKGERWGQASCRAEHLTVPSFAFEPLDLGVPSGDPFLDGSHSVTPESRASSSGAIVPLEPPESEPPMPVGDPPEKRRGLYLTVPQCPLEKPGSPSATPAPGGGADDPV

With `Cc1ccc2nc3c(cc(C#N)c(=O)n3-c3nccs3)c(=O)n2c1` the EC50 [1] was 10.6 µM (inactive) and the EC50 [2] was 3.72 µM (active).
With `Nc1nnnn1/N=C/c1cccc(OCc2ccccc2Cl)c1` the AC50 (CAAX prenyl protease 2) was 2.78 µM (active) and the AC50 [3] was > 350 µM (inactive).
With `Cc1ccc(-n2c(N)c(C(=O)Nc3ccccc3F)sc2=S)cc1C` the IC50 [4] was 50.5 µM (active).
For `CC(C)(C)CCN1CCC[C@@H](NC(=O)COc2ccccc2Cl)C1`, the EC50 [5] was 10 µM (active).
